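The compound was tested at five concentrations on cells cultured in 96-well plates, with a 48-hour exposure period. At the GI50, growth is halved.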 The source made the active and inactive calls. No stated cut-off is given here; in the data, active = GI50 up to about 1.1 µM and inactive = higher.
Key:
Assay in all cases: growth of human tumour cells (NCI), 48 h
[1] = system: SK-MEL-28
[2] = system: SF-268
[3] = system: SK-MEL-5
[4] = system: LXFL 529
[5] = system: MOLT-4
[6] = system: ACHN
[7] = system: SF-539
[8] = system: HT-29
[9] = system: SNB-75
[10] = system: NCI-H226
[11] = system: KM12
[12] = system: A498
[13] = system: HCC 2998
[14] = system: HCT-15
[15] = system: Malme-3M
[16] = system: UACC-257

SMILES	GI50 [1]	GI50 [2]	GI50 [3]	GI50 [4]	GI50 [5]	GI50 [6]	GI50 [7]	GI50 [8]	GI50 [9]	GI50 [10]	GI50 [11]	GI50 [12]	GI50 [13]	GI50 [14]	GI50 [15]	GI50 [16]
C/N=C1\CC2c3cc(OC)c(OC)cc3CCN2C2=C1C(=O)CC(C)(C)C2 (stereo not given)	> 100 µM (inactive)	> 100 µM (inactive)	> 100 µM (inactive)	> 100 µM (inactive)	> 100 µM (inactive)	> 100 µM (inactive)	> 100 µM (inactive)	> 100 µM (inactive)	> 100 µM (inactive)	> 100 µM (inactive)	> 100 µM (inactive)	> 100 µM (inactive)	> 100 µM (inactive)	> 10 µM	> 100 µM (inactive)	> 100 µM (inactive)
C=CCOC(=O)C1CCC(=O)N1C(=O)C(Cl)Cl (stereo not given)	> 100 µM (inactive)	> 100 µM (inactive)	> 100 µM (inactive)	> 100 µM (inactive)	> 100 µM (inactive)	> 100 µM (inactive)	–	> 100 µM (inactive)	61.8 µM (inactive)	> 100 µM (inactive)	> 100 µM (inactive)	> 100 µM (inactive)	> 100 µM (inactive)	> 100 µM	> 100 µM (inactive)	> 100 µM (inactive)
O=c1/c(=C/c2cccc3ccccc23)sc2nc3ccccc3n12	> 100 µM (inactive)	> 100 µM (inactive)	> 100 µM (inactive)	> 100 µM (inactive)	–	> 100 µM (inactive)	> 100 µM (inactive)	> 100 µM (inactive)	71.9 µM (inactive)	> 100 µM (inactive)	> 100 µM (inactive)	> 100 µM (inactive)	> 100 µM (inactive)	> 100 µM	> 100 µM (inactive)	> 100 µM (inactive)
NN/C(Cc1ccccc1)=N\NO	> 100 µM (inactive)	> 100 µM (inactive)	53.7 µM (inactive)	55.1 µM (inactive)	> 100 µM (inactive)	69.3 µM (inactive)	> 100 µM (inactive)	> 100 µM (inactive)	> 100 µM (inactive)	> 100 µM (inactive)	17.4 µM (inactive)	> 100 µM (inactive)	> 100 µM (inactive)	26.8 µM	> 100 µM (inactive)	> 100 µM (inactive)
Cc1nc(-c2nc(C)c(C(=O)NN(C)C)s2)sc1C(=O)NN(C)C	> 100 µM (inactive)	> 100 µM (inactive)	> 100 µM (inactive)	> 100 µM (inactive)	44.1 µM (inactive)	> 100 µM (inactive)	> 100 µM (inactive)	> 100 µM (inactive)	60.3 µM (inactive)	> 100 µM (inactive)	> 100 µM (inactive)	> 100 µM (inactive)	> 100 µM (inactive)	67.9 µM	> 100 µM (inactive)	> 100 µM (inactive)
O=c1/c(=C/c2ccccc2F)sc2nc3ccccc3n12	> 100 µM (inactive)	61.5 µM (inactive)	> 100 µM (inactive)	88.3 µM (inactive)	> 100 µM (inactive)	> 100 µM (inactive)	74.3 µM (inactive)	> 100 µM (inactive)	57.4 µM (inactive)	> 100 µM (inactive)	–	> 100 µM (inactive)	> 100 µM (inactive)	> 100 µM	> 100 µM (inactive)	> 100 µM (inactive)
CCOc1ccccc1/N=C(/NC(=O)CC)SC	> 10 µM (inactive)	> 10 µM (inactive)	> 10 µM (inactive)	> 10 µM (inactive)	68.4 µM (inactive)	> 10 µM (inactive)	> 10 µM (inactive)	> 10 µM (inactive)	67.6 µM (inactive)	> 10 µM (inactive)	> 10 µM (inactive)	> 10 µM (inactive)	> 10 µM (inactive)	52.5 µM	67.1 µM (inactive)	> 10 µM (inactive)
Cc1ccc(Nc2ccc(Nc3ccc(C)cc3S(=O)(=O)O)c3c2C(=O)c2ccccc2C3=O)c(S(=O)(=O)O)c1	> 100 µM (inactive)	> 100 µM (inactive)	> 100 µM (inactive)	> 100 µM (inactive)	> 100 µM (inactive)	> 100 µM (inactive)	> 100 µM (inactive)	–	94.6 µM (inactive)	> 100 µM (inactive)	> 100 µM (inactive)	> 100 µM (inactive)	> 100 µM (inactive)	> 100 µM	> 100 µM (inactive)	> 100 µM (inactive)
CC1=Cc2cccc(C)c2C(=O)C1=O [O-HIBISCANONE]	16 µM (inactive)	11.3 µM (inactive)	2.28 µM (inactive)	2.11 µM (inactive)	0.52 µM (active)	5.12 µM (inactive)	6.56 µM (inactive)	2.79 µM (inactive)	15.8 µM (inactive)	15.8 µM (inactive)	4.71 µM (inactive)	17.1 µM (inactive)	14.6 µM (inactive)	6.11 µM	1.8 µM (inactive)	2.16 µM (inactive)

— ChEMBL document CHEMBL1201862, “PubChem BioAssay data set” (2004)
